Data reported in article PMC11672637, “7-O-Carboxylic Acid-Substituted 3-O-Alkyl Difluoroquercetin; An Aztreonam-Potentiating Agent Against Carbapenemase-Producing Pseudomonas aeruginosa Through Simultaneous Inhibition of Metallo-β-Lactamase and Efflux Pump” (Antibiotics, 2024).
Read-outs that look alike come from different tables or passages of the source.

Key:
Type in all cases: cell-based, P. aeruginosa
[1] = test system: PA-014, blaGES; experiment: MIC / checkerboard with ATM; settings: for MIC: Pseudomonas aeruginosa, read-out: MIC of ATM with 5, PA-014
[2] = test system: PA-003, blaVIM; experiment: MIC / checkerboard with ATM; settings: PA-003
[3] = test system: PA-029, blaIMP; experiment: MIC / checkerboard with ATM; settings: for MIC: Pseudomonas aeruginosa, read-out: MIC of ATM with 5, PA-029
[4] = test system: PA-032, blaIMP; experiment: MIC / checkerboard with ATM; settings: for MIC: Pseudomonas aeruginosa, read-out: MIC of ATM with 5, PA-032
[5] = test system: PA-026, blaNDM; experiment: MIC / checkerboard with ATM; settings: for MIC: Pseudomonas aeruginosa, read-out: MIC of ATM with 5, PA-026
[6] = test system: PA-039, blaNDM; experiment: MIC / checkerboard with ATM; settings: for MIC: Pseudomonas aeruginosa, read-out: MIC of ATM with 5, PA-039
[7] = test system: PA-044, blaNDM; experiment: MIC / checkerboard with ATM; settings: for MIC: Pseudomonas aeruginosa, read-out: MIC of ATM with 5, PA-044
[8] = test system: PA-042, blaIMP/NDM; experiment: MIC / checkerboard with ATM; settings: for MIC: Pseudomonas aeruginosa, read-out: MIC of ATM with 5, PA-042
[9] = test system: All CPPA (n = 26); experiment: MIC distribution over clinical isolates; settings: for inhibition at 1 µg/mL / inhibition at 2 µg/mL / inhibition at 4 µg/mL: Pseudomonas aeruginosa; for inhibition at 1 µg/mL: read-out: Cumulative % inhibition by ATM, 5 at 1 mg/L; for inhibition at 2 µg/mL: read-out: Cumulative % inhibition by ATM, 5 at 2 mg/L; for inhibition at 4 µg/mL: read-out: Cumulative % inhibition by ATM, 5 at 4 mg/L

In the case of `CC(C)(C)CCOc1c(-c2ccc(F)c(F)c2)oc2cc(OCC(=O)O)cc(O)c2c1=O` [Compound 5, 2-((2-(3,4-Difluorophenyl)-3-(3,3-dimethylbutoxy)-5-hydroxy-4-oxo-4H-chromen-7-yl)oxy)acetic Acid], the “Activity (FICI class)” value ([1]; PA-014) is reported as “S (S (Synergy, FICI ≤ 0.5))”, the “Concentrations of ATM and 5 at lowest FICI (ATM/5)” value (shortened to “Concentrations”) ([1]; PA-014) is reported as 4/16 and the “Lowest FICI (ATM/5)” value ([1]; PA-014) is reported as 0.28. The “Minimum concentration of 5 to make sensitive to ATM” value (shortened to “Minimum concentration”) ([1]; PA-014) was 4 mg/L, the “Susceptibility to ATM” value ([1]; PA-014, ATM/5) was “S (S (sensitive, MIC ≤ 8 mg/L))” and the “FD (fold decrease in MIC of ATM with 5)” value ([1]; PA-014, lowest-FICI combination) was 4. It also gave an MIC ([1]; 5 at 1 mg/L) of 16 µg/mL, an MIC ([1]; 5 at 2 mg/L) of 16 µg/mL and an MIC ([1]; 5 at 4 mg/L) of 8 µg/mL. For the same molecule, the MIC ([1]; 5 at 8 mg/L) was 8 µg/mL, the MIC ([1]; 5 at 16 mg/L) was 4 µg/mL and the MIC ([1]; 5 at 32 mg/L) was 4 µg/mL. For the same molecule, the MIC ([1]; 5 at 64 mg/L) was 4 µg/mL, the “Activity (FICI class)” value [2] was “I (I (indifference, 0.5 < FICI ≤ 4))” and the “Concentrations” value [2] was 16/1. For the same molecule, the “Minimum concentration” value [2] was 1 mg/L, the “MIC of ATM with 5” value ([2]; 5 at 2 mg/L) was 16 µg/mL and the “MIC of ATM with 5” value ([2]; 5 at 4 mg/L) was 16 µg/mL. For the same molecule, the “MIC of ATM with 5” value ([2]; 5 at 8 mg/L) was 16 µg/mL, the “MIC of ATM with 5” value ([2]; 5 at 16 mg/L) was 16 µg/mL and the “MIC of ATM with 5” value ([2]; 5 at 32 mg/L) was 16 µg/mL. The “MIC of ATM with 5” value ([2]; 5 at 64 mg/L) was 16 µg/mL, the “Susceptibility to ATM” value ([2]; ATM/5) was “I (I (intermediate, MIC = 16 mg/L))” and the “FD (fold decrease in MIC of ATM with 5)” value ([2]; lowest-FICI combination) was 2. The MIC ([2]; Pseudomonas aeruginosa, read-out: MIC of ATM with 5, 5 at 1 mg/L) was 16 µg/mL, the “Activity (FICI class)” value ([3]; PA-029) was “S (S (Synergy, FICI ≤ 0.5))” and the “Concentrations” value ([3]; PA-029) was 8/16. For the same molecule, the “Lowest FICI (ATM/5)” value ([3]; PA-029) was 0.28, the “Minimum concentration” value ([3]; PA-029) was 16 mg/L and the “Susceptibility to ATM” value ([3]; PA-029, ATM/5) was “S (S (sensitive, MIC ≤ 8 mg/L))”. For the same molecule, the “FD (fold decrease in MIC of ATM with 5)” value ([3]; PA-029, lowest-FICI combination) was 4, the MIC ([3]; 5 at 1 mg/L) was 32 µg/mL and the MIC ([3]; 5 at 2 mg/L) was 32 µg/mL. It also gave an MIC ([3]; 5 at 4 mg/L) of 16 µg/mL, an MIC ([3]; 5 at 8 mg/L) of 16 µg/mL and an MIC ([3]; 5 at 16 mg/L) of 8 µg/mL. For the same molecule, the MIC ([3]; 5 at 32 mg/L) was 8 µg/mL, the MIC ([3]; 5 at 64 mg/L) was 8 µg/mL and the “Activity (FICI class)” value ([4]; PA-032) was “S (S (Synergy, FICI ≤ 0.5))”. For the same molecule, the “Concentrations” value ([4]; PA-032) was 2/8, the “Susceptibility to ATM” value ([4]; PA-032, ATM/5) was “S (S (sensitive, MIC ≤ 8 mg/L))” and the “FD (fold decrease in MIC of ATM with 5)” value ([4]; PA-032, lowest-FICI combination) was 4. For the same molecule, the MIC ([4]; 5 at 1 mg/L) was 4 µg/mL, the MIC ([4]; 5 at 2 mg/L) was 4 µg/mL and the MIC ([4]; 5 at 4 mg/L) was 4 µg/mL. It also gave an MIC ([4]; 5 at 8 mg/L) of 2 µg/mL, an MIC ([4]; 5 at 16 mg/L) of 1 µg/mL and an MIC ([4]; 5 at 32 mg/L) of 1 µg/mL. For the same molecule, the MIC ([4]; 5 at 64 mg/L) was 1 µg/mL, the “Activity (FICI class)” value ([5]; PA-026) was “S (S (Synergy, FICI ≤ 0.5))” and the “Concentrations” value ([5]; PA-026) was 2/4. For the same molecule, the “Lowest FICI (ATM/5)” value ([5]; PA-026) was 0.26, the “Susceptibility to ATM” value ([5]; PA-026, ATM/5) was “S (S (sensitive, MIC ≤ 8 mg/L))” and the “FD (fold decrease in MIC of ATM with 5)” value ([5]; PA-026, lowest-FICI combination) was 4. The MIC ([5]; 5 at 1 mg/L) was 4 µg/mL, the MIC ([5]; 5 at 2 mg/L) was 4 µg/mL and the MIC ([5]; 5 at 4 mg/L) was 2 µg/mL. For the same molecule, the MIC ([5]; 5 at 8 mg/L) was 2 µg/mL, the MIC ([5]; 5 at 16 mg/L) was 1 µg/mL and the MIC ([5]; 5 at 32 mg/L) was 1 µg/mL. The MIC ([5]; 5 at 64 mg/L) was 1 µg/mL, the “Activity (FICI class)” value ([6]; PA-039) was “S (S (Synergy, FICI ≤ 0.5))” and the “Concentrations” value ([6]; PA-039) was 4/8. The “Lowest FICI (ATM/5)” value ([6]; PA-039) was 0.27, the “Minimum concentration” value ([6]; PA-039) was 4 mg/L and the “Susceptibility to ATM” value ([6]; PA-039, ATM/5) was “S (S (sensitive, MIC ≤ 8 mg/L))”. The “FD (fold decrease in MIC of ATM with 5)” value ([6]; PA-039, lowest-FICI combination) was 4, the MIC ([6]; 5 at 1 mg/L) was 16 µg/mL and the MIC ([6]; 5 at 2 mg/L) was 16 µg/mL. The MIC ([6]; 5 at 4 mg/L) was 8 µg/mL, the MIC ([6]; 5 at 8 mg/L) was 4 µg/mL and the MIC ([6]; 5 at 16 mg/L) was 4 µg/mL. The MIC ([6]; 5 at 32 mg/L) was 4 µg/mL, the MIC ([6]; 5 at 64 mg/L) was 4 µg/mL and the “Activity (FICI class)” value ([7]; PA-044) was “S (S (Synergy, FICI ≤ 0.5))”. The “Concentrations” value ([7]; PA-044) was 4/8, the “Lowest FICI (ATM/5)” value ([7]; PA-044) was 0.27 and the “Minimum concentration” value ([7]; PA-044) was 4 mg/L. The “Susceptibility to ATM” value ([7]; PA-044, ATM/5) was “S (S (sensitive, MIC ≤ 8 mg/L))”, the “FD (fold decrease in MIC of ATM with 5)” value ([7]; PA-044, lowest-FICI combination) was 4 and the MIC ([7]; 5 at 1 mg/L) was 16 µg/mL. It also gave an MIC ([7]; 5 at 2 mg/L) of 16 µg/mL, an MIC ([7]; 5 at 4 mg/L) of 8 µg/mL and an MIC ([7]; 5 at 8 mg/L) of 4 µg/mL. It also gave an MIC ([7]; 5 at 16 mg/L) of 4 µg/mL, an MIC ([7]; 5 at 32 mg/L) of 4 µg/mL and an MIC ([7]; 5 at 64 mg/L) of 4 µg/mL. For the same molecule, the “Activity (FICI class)” value ([8]; PA-042) was “I (I (indifference, 0.5 < FICI ≤ 4))”, the “Concentrations” value ([8]; PA-042) was 1/4 and the “Lowest FICI (ATM/5)” value ([8]; PA-042) was 0.51. For the same molecule, the “Susceptibility to ATM” value ([8]; PA-042, ATM/5) was “S (S (sensitive, MIC ≤ 8 mg/L))”, the “FD (fold decrease in MIC of ATM with 5)” value ([8]; PA-042, lowest-FICI combination) was 2 and the MIC ([8]; 5 at 1 mg/L) was 2 µg/mL. It also gave an MIC ([8]; 5 at 2 mg/L) of 2 µg/mL, an MIC ([8]; 5 at 4 mg/L) of 1 µg/mL and an MIC ([8]; 5 at 8 mg/L) of 1 µg/mL. The MIC ([8]; 5 at 16 mg/L) was 1 µg/mL, the MIC ([8]; 5 at 32 mg/L) was 1 µg/mL and the MIC ([8]; 5 at 64 mg/L) was 1 µg/mL. For the same molecule, the “Clinical strains sensitized to ATM (MIC ≤ 8 mg/L) by combination with 5” value [9] was 25 out of 26, the “CPPA isolates in which ATM/5 combination showed synergistic effects” value ([9]; 22 out of 26 isolates) was 85% and the inhibition at 1 µg/mL ([9]; ATM 0.5 mg/L) was 0%. It also gave an inhibition at 1 µg/mL ([9]; ATM 1 mg/L) of 4%, an inhibition at 1 µg/mL ([9]; ATM 2 mg/L) of 19% and an inhibition at 1 µg/mL ([9]; ATM 4 mg/L) of 35%. The inhibition at 1 µg/mL ([9]; ATM 8 mg/L) was 46%, the inhibition at 1 µg/mL ([9]; ATM 16 mg/L) was 81% and the inhibition at 1 µg/mL ([9]; ATM 32 mg/L) was 100%. The inhibition at 1 µg/mL ([9]; ATM 64 mg/L) was 100%, the inhibition at 2 µg/mL ([9]; ATM 0.5 mg/L) was 4% and the inhibition at 2 µg/mL ([9]; ATM 1 mg/L) was 4%. It also gave an inhibition at 2 µg/mL ([9]; ATM 2 mg/L) of 23%, an inhibition at 2 µg/mL ([9]; ATM 4 mg/L) of 38% and an inhibition at 2 µg/mL ([9]; ATM 8 mg/L) of 46%. The inhibition at 2 µg/mL ([9]; ATM 16 mg/L) was 92%, the inhibition at 2 µg/mL ([9]; ATM 32 mg/L) was 100% and the inhibition at 2 µg/mL ([9]; ATM 64 mg/L) was 100%. It also gave an inhibition at 4 µg/mL ([9]; ATM 0.5 mg/L) of 4%, an inhibition at 4 µg/mL ([9]; ATM 1 mg/L) of 8% and an inhibition at 4 µg/mL ([9]; ATM 2 mg/L) of 31%. The inhibition at 4 µg/mL ([9]; ATM 4 mg/L) was 46%.
